Assay results published in publication PMC11671014 (PLOS Pathogens, 2024).
Where “and” joins values, the source holds several entries; their conditions need not be identical. Equal values may be shown once. Read-outs that look alike come from different tables or passages of the source.

Assays:
Rat pharmacokinetics = assay type: in vivo, Sprague-Dawley rats; details: for half-life: read-out: T1/2z (converted)
Method: Sprague-Dawley rats (11 weeks old) were sourced from Hilltop Lab Animals, Inc (Scottdale, Pennsylvania, USA). […] Blood was collected from a jugular cannula at 0.083, 0.25, 0.5, 1, 2, 4, 8 and 24 h post i.v. dosing, and at the same times (except the 0.083-h sample) following oral administration. A portion of the blood samples were processed into plasma. Samples were precipitated with 0.5% formic acid in methanol and the supernatants were analysed by positive ion electrospray LC-MS for the administered compound. Non-compartmental pharmacokinetic parameters were calculated from individual concentration vs time profiles using Phoenix 64 WinNonlin (Version 8.1 Certara, Princeton NJ).

[1] = target: Atg7 (autophagy-related protein-7) (Homo sapiens, UniProt O95352); assay: ATG7 E1-E2 transthiolation HTRF assay (GABARAP); assay type: biochemical; details: read-out: ATG7 IC50 HTRF RH-GABARAP
Chain of Atg7 (autophagy-related protein-7) (O95352 whole entry): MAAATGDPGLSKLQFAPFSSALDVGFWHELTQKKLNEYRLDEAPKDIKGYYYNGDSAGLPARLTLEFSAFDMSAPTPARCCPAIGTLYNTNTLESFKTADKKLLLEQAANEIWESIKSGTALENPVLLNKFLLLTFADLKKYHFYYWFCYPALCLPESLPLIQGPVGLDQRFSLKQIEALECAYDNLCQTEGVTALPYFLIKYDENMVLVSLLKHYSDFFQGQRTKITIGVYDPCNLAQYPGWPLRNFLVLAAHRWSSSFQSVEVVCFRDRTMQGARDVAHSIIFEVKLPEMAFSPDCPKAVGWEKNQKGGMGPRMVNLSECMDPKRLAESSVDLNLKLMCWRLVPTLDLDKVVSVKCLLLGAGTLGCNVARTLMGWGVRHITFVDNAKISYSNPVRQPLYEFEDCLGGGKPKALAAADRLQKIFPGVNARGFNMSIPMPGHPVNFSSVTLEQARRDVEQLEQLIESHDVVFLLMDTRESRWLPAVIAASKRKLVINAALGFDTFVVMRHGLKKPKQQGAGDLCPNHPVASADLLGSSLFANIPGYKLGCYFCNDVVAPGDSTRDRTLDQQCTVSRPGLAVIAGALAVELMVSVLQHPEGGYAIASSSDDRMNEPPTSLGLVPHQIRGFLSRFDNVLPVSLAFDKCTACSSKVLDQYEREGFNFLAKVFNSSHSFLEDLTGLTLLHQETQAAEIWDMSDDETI
From the text: An Homogeneous Time-Resolved Fluorescence (HTRF) enzyme assay was employed to evaluate compound activity against ATG7 as previously described. In this assay, a Flag-tagged ATG8 homolog (GABA type A receptor-associated protein; GABARAP) is activated by ATG7 and then transthiolated to a GST-tagged E2 (ATG3). The product of the enzyme reaction, Flag-GABARAP-ATG3-GST, is quantified by measuring FRET between Europium-Cryptate labelled monoclonal anti-Flag M2 (FLAG M2-Eu cryptate; Revvity, Cat# 61FG2KLB) and […] (Anti-GST IgG conjugated to SureLight-Allophycocyanin) (Revvity, Cat# AD0059G)). The activation and transthiolation of ubiquitin by UAE, activation and transthiolation of NEDD8 by NAE and activation and transthiolation of SUMO by SAE were all assayed in a similar fashion with appropriately tagged ubiquitin-like proteins and E2 conjugating enzymes as described.

[2] = Blood exposure in the P. falciparum infected SCID mouse model; assay type: in vivo, NODscidIL2Rγ^null mice engrafted with human RBCs; details: for Cmax / Tmax / AUC(0-t): female, mouse, whole blood, po
Method: The model using P. falciparum Pf3D7^0087/N9 in NODscidIL2Rγ^null mice engrafted with human RBCs was adapted from a previously described procedure. Female NODscidIL2Rγ^null mice were purchased from Charles River (Germany). Briefly, two engrafted mice/dosing group (females, 20–22 g) were infected intravenously with 2 x 10^7 P. falciparum (Pf3D7^0087/N9) on day 0. The antimalarial efficacy was assessed following administration (p.o.) of 100 or 200 mg/kg of compound or of 4 daily doses of 50 mg/kg, initiated on day 3 post-infection. The effect on blood parasitemia was measured by microscopic analysis of Giemsa-stained blood smears (on days 3, 4, 5, 6 and 7 post-infection). Mice were euthanized on day 7. Animal were monitored for symptoms of acute toxicity, including decreased activity, sunken flanks, ataxia and blood in faeces.
On day 3, blood samples (20 μL) were obtained at time points up to 24 h after the first administration. Protein was precipitated with acetonitrile and the remaining compound was assessed by LC-MS/MS in the selected reaction monitoring mode using HESI ionization in positive ion mode.

[3] = male, Sprague-Dawley, IV 1 mg/kg, plasma
[4] = male, Sprague-Dawley, PO 1 mg/kg, plasma
[5] = male, Sprague-Dawley, PO 10 mg/kg, plasma
[6] = male, Sprague-Dawley, PO 25 mg/kg, plasma
[7] = male, Sprague-Dawley, whole blood, IV 1 mg/kg, blood
[8] = male, Sprague-Dawley, whole blood, PO 1 mg/kg, blood
[9] = male, Sprague-Dawley, whole blood, PO 10 mg/kg, blood
[10] = male, Sprague-Dawley, whole blood, PO 25 mg/kg, blood
[11] = 1 x 100 mg/kg p.o., mice M1, M2
[12] = 1 x 200 mg/kg p.o., mice M3, M4
[13] = 4 days x 50 mg/kg p.o., after first dose, blood
[14] = 4 days x 50 mg/kg p.o., mice M1, M2

CC(C)c1nn([C@@H]2O[C@H](COS(N)(=O)=O)[C@@H](O)[C@H]2O)c2ncnc(N)c12 [ML471, ((2R,3S,4R,5R)-5-(4-amino-3-isopropyl-1H-pyrazolo[3,4-d]pyrimidin-1-yl)-3,4-dihydroxytetrahydrofuran-2-yl)methyl sulfamate]
dose recovered in 0–24 h urine as parent (Rat pharmacokinetics; 0–24 h urine): 9–38 % of the dose
area under the curve (Rat pharmacokinetics; 25 mg/kg p.o., blood): 30 µM·h
blood clearance as share of liver blood flow (Rat pharmacokinetics; IV dose of 1 mg/kg): ~ 4 % of liver blood flow
Cmax (Rat pharmacokinetics; [3]): 1540 nM
Tmax (Rat pharmacokinetics; [3]): 4.8 min
clearance (Rat pharmacokinetics; [3]): 64 mL/min/kg
half-life (Rat pharmacokinetics; [3]): 133 min
Cmax (Rat pharmacokinetics; [4]): 19.1 nM
Tmax (Rat pharmacokinetics; [4]): 30 min
bioavailability (Rat pharmacokinetics; male, Sprague-Dawley, PO 1 mg/kg, plasma, read-out: %F): 27.7%
half-life (Rat pharmacokinetics; [4]): 527 min
Cmax (Rat pharmacokinetics; [5]): 196 nM
Tmax (Rat pharmacokinetics; [5]): 22.8 min
bioavailability (Rat pharmacokinetics; male, Sprague-Dawley, PO 10 mg/kg, plasma, read-out: %F): 25.2%
half-life (Rat pharmacokinetics; [5]): 549 min
Cmax (Rat pharmacokinetics; [6]): 393 nM
Tmax (Rat pharmacokinetics; [6]): 45 min
bioavailability (Rat pharmacokinetics; male, Sprague-Dawley, PO 25 mg/kg, plasma, read-out: %F): 16.4%
half-life (Rat pharmacokinetics; [6]): 214 min
Vd (Rat pharmacokinetics; male, Sprague-Dawley, plasma, iv, 1 mg/kg, IV 1 mg/kg, plasma, read-out: Vss): 2.79 L/kg
Vd (Rat pharmacokinetics; male, Sprague-Dawley, plasma, iv, 1 mg/kg, IV 1 mg/kg, plasma, read-out: Vz): 12.3 L/kg
blood plasma ratio at 0.083 h (Rat pharmacokinetics; male, Sprague-Dawley, whole blood and plasma, intravenous, 1 mg/kg, time 0.083 h): 0.8
blood plasma ratio at 0.25 h (Rat pharmacokinetics; male, Sprague-Dawley, whole blood and plasma, intravenous, 1 mg/kg, time 0.25 h): 1.5
blood plasma ratio at 0.5 h (Rat pharmacokinetics; male, Sprague-Dawley, whole blood and plasma, intravenous, 1 mg/kg, time 0.5 h): 2.1
blood plasma ratio at 1 h (Rat pharmacokinetics; male, Sprague-Dawley, whole blood and plasma, intravenous, 1 mg/kg, time 1 h): 5.5
blood plasma ratio at 2 h (Rat pharmacokinetics; male, Sprague-Dawley, whole blood and plasma, intravenous, 1 mg/kg, time 2 h): 17.8
blood plasma ratio at 4 h (Rat pharmacokinetics; male, Sprague-Dawley, whole blood and plasma, intravenous, 1 mg/kg, time 4 h): 48.9
blood plasma ratio at 8 h (Rat pharmacokinetics; male, Sprague-Dawley, whole blood and plasma, intravenous, 1 mg/kg, time 8 h): 114
blood plasma ratio (Rat pharmacokinetics; male, Sprague-Dawley, whole blood and plasma, iv, 1 mg/kg, i.v. PK study, read-out: blood to plasma ratio at the initial sampling times): ~1
Cmax (Rat pharmacokinetics; [7]): 1180 nM
Tmax (Rat pharmacokinetics; [7]): 10.2 min
clearance (Rat pharmacokinetics; [7]): 2.3 mL/min/kg
half-life (Rat pharmacokinetics; [7]): 2200 min
Cmax (Rat pharmacokinetics; [8]): 39.3 nM
Tmax (Rat pharmacokinetics; [8]): 960 min
bioavailability (Rat pharmacokinetics; male, Sprague-Dawley, whole blood, PO 1 mg/kg, blood, read-out: %F): 9.29%
half-life (Rat pharmacokinetics; [8]): 1390 min
Cmax (Rat pharmacokinetics; [9]): 261 nM
Tmax (Rat pharmacokinetics; [9]): 360 min
bioavailability (Rat pharmacokinetics; male, Sprague-Dawley, whole blood, PO 10 mg/kg, blood, read-out: %F): 9.56%
half-life (Rat pharmacokinetics; [9]): 1770 min
Cmax (Rat pharmacokinetics; [10]): 669 nM
Tmax (Rat pharmacokinetics; [10]): 480 min
bioavailability (Rat pharmacokinetics; male, Sprague-Dawley, whole blood, PO 25 mg/kg, blood, read-out: %F): 8.72%
half-life (Rat pharmacokinetics; male, Sprague-Dawley, whole blood, PO 25 mg/kg, blood, terminal half-life, T1/2∞): 1830 min
Vd (Rat pharmacokinetics; male, Sprague-Dawley, whole blood, iv, 1 mg/kg, IV 1 mg/kg, blood, read-out: Vss): 6.25 L/kg
Vd (Rat pharmacokinetics; male, Sprague-Dawley, whole blood, iv, 1 mg/kg, IV 1 mg/kg, blood, read-out: Vz): 6.54 L/kg
bioavailability (Rat pharmacokinetics; male, Sprague-Dawley, whole blood, oral, blood, range over doses, read-out: %F (blood), rat oral bioavailability): 8.72 to 9.56%
IC50 [1]: 22 ± 9 nM
AUC0-120h/dose (mean) ([2]; 1 x 100 mg/kg p.o., blood): 2,500 (h*ng/mL)/(mg/kg)
Cmax/dose (mean) ([2]; 1 x 100 mg/kg p.o., blood): 33.5 (ng/mL)/(mg/kg)
AUC0-120h (individual mice) [2, 11]: 260,000 h*ng/mL
AUC0-120h/dose (individual mice) [2, 11]: 2,390 (h*ng/mL)/(mg/kg) and 2,600 (h*ng/mL)/(mg/kg)
Cmax (individual mice) [2, 11]: 3,600 ng/mL
Cmax/dose (individual mice) [2, 11]: 31 (ng/mL)/(mg/kg) and 36 (ng/mL)/(mg/kg)
AUC0-120h/dose (mean) ([2]; 1 x 200 mg/kg p.o., blood): 1,070 (h*ng/mL)/(mg/kg)
Cmax/dose (mean) ([2]; 1 x 200 mg/kg p.o., blood): 18.8 (ng/mL)/(mg/kg)
AUC0-120h (individual mice) [2, 12]: 259,000 h*ng/mL
AUC0-120h/dose (individual mice) [2, 12]: 855 (h*ng/mL)/(mg/kg) and 1,290 (h*ng/mL)/(mg/kg)
Cmax (individual mice) [2, 12]: 4,180 ng/mL
Cmax/dose (individual mice) [2, 12]: 16.7 (ng/mL)/(mg/kg) and 20.9 (ng/mL)/(mg/kg)
AUC0-24h/dose (mean) [2, 13]: 422 (h*ng/mL)/(mg/kg)
Cmax/dose (mean) [2, 13]: 19.3 (ng/mL)/(mg/kg)
AUC0-24h (individual mice) [2, 14]: 22,572 h*ng/mL
AUC0-24h/dose (individual mice) [2, 14]: 451 (h*ng/mL)/(mg/kg) and 392 (h*ng/mL)/(mg/kg)
Cmax (individual mice) [2, 14]: 1,040 ng/mL
Cmax/dose (individual mice) [2, 14]: 17.8 (ng/mL)/(mg/kg) and 20.8 (ng/mL)/(mg/kg)
Tmax (individual mice) [2, 14]: 24 h
Cmax ([2]; NODscidIL2Rγ^null, 50 mg/kg, 4 days x 50 mg/kg p.o., after first dose, blood, read-out: Cmax (mean)): 964 ng/mL
Tmax ([2]; NODscidIL2Rγ^null, 50 mg/kg, 4 days x 50 mg/kg p.o., after first dose, blood, read-out: Tmax (mean)): 15 h
AUC(0-t) ([2]; NODscidIL2Rγ^null, 50 mg/kg, 4 days x 50 mg/kg p.o., mice M1, M2, read-out: AUC0-24h (individual mice)): 19.6 µg·h/mL
Cmax ([2]; NODscidIL2Rγ^null, 50 mg/kg, 4 days x 50 mg/kg p.o., mice M1, M2, read-out: Cmax (individual mice)): 888 ng/mL
Cmax ([2]; NODscidIL2Rγ^null, 100 mg/kg, 1 x 100 mg/kg p.o., blood, read-out: Cmax (mean)): 3350 ng/mL
Tmax ([2]; NODscidIL2Rγ^null, 100 mg/kg, 1 x 100 mg/kg p.o., blood, read-out: Tmax (mean)): 5 h
AUC(0-t) ([2]; NODscidIL2Rγ^null, 100 mg/kg, 1 x 100 mg/kg p.o., mice M1, M2, read-out: AUC0-120h (individual mice)): 239 µg·h/mL
Cmax ([2]; NODscidIL2Rγ^null, 100 mg/kg, 1 x 100 mg/kg p.o., mice M1, M2, read-out: Cmax (individual mice)): 3100 ng/mL
Tmax ([2]; NODscidIL2Rγ^null, 100 mg/kg, 1 x 100 mg/kg p.o., mice M1, M2, read-out: Tmax (individual mice)): 4 h
Cmax ([2]; NODscidIL2Rγ^null, 200 mg/kg, 1 x 200 mg/kg p.o., blood, read-out: Cmax (mean)): 3760 ng/mL
Tmax ([2]; NODscidIL2Rγ^null, 200 mg/kg, 1 x 200 mg/kg p.o., blood, read-out: Tmax (mean)): 4 h
AUC(0-t) ([2]; NODscidIL2Rγ^null, 200 mg/kg, 1 x 200 mg/kg p.o., mice M3, M4, read-out: AUC0-120h (individual mice)): 171 µg·h/mL
Cmax ([2]; NODscidIL2Rγ^null, 200 mg/kg, 1 x 200 mg/kg p.o., mice M3, M4, read-out: Cmax (individual mice)): 3340 ng/mL
Tmax ([2]; NODscidIL2Rγ^null, 200 mg/kg, 1 x 200 mg/kg p.o., mice M3, M4, read-out: Tmax (individual mice)): 4 h
AUC(0-t) ([2]; NODscidIL2Rγnull engrafted with human RBCs, 50 mg/kg, 4 x 50 mg/kg p.o., at 24 h after the first dose, read-out: AUC0-24h): 54 µM·h
AUC(0-t) ([2]; NODscidIL2Rγnull engrafted with human RBCs, 50 mg/kg, 4 days x 50 mg/kg p.o., after first dose, blood, read-out: AUC0-24h (mean)): 21.1 µg·h/mL
AUC(0-t) ([2]; NODscidIL2Rγnull engrafted with human RBCs, 100 mg/kg, 1 x 100 mg/kg p.o., blood, read-out: AUC0-120h (mean)): 250 µg·h/mL
AUC(0-t) ([2]; NODscidIL2Rγnull engrafted with human RBCs, 100 mg/kg, single dose 100 mg/kg p.o., read-out: AUC0-120h): 640 µM·h
AUC(0-t) ([2]; NODscidIL2Rγnull engrafted with human RBCs, 200 mg/kg, 1 x 200 mg/kg p.o., blood, read-out: AUC0-120h (mean)): 215 µg·h/mL
AUC(0-t) ([2]; NODscidIL2Rγnull engrafted with human RBCs, 200 mg/kg, single dose 200 mg/kg p.o., read-out: AUC0-120h): 550 µM·h
